{
  "source": "patent US20100048638A1",
  "about": "“HEPARAN SULFATE INHIBITORS” (ZACHARON PHARMACEUTICALS, INC., priority 2008, published 2010)",
  "key": {"[1]": {"test_system": "FGF2 binding to heparan sulfate in human cervical cancer cells (HeLa)", "experiment": "FGF2 binding to heparan sulfate in HeLa cells, flow cytometry", "format": "cell-based", "settings": "various concentrations", "protocol": "(§1) FIG. 2 illustrates the impact of 4-(4-(3,4-dimethoxyphenyl)-6-phenylpyrimidin-2-yl)morpholine on the ability of FGF2 to bind to heparan sulfate in human cervical cancer cells (HeLa). FGF2 binding to heparan sulfate is measured by culturing HeLa cells in the presence of the heparan sulfate modulator. After 2 days of growth, the cells are released with 5 mM EDTA and probed with biotinylated FGF2 for 30 minutes on ice. After washing unbound FGF2, bound FGF2 is detected with streptavidin-Cy5-PE. After washing to remove unbound streptavidin-Cy5-PE, the bound probe is quantified using a flow cytometry. The heparan sulfate inhibitors are tested on at least three independent occasions, in duplicate over a dose range. Heparan sulfate specificity is determined by probing with lectins to other glycan classes (chondroitin sulfate, O-linked, N-linked, etc.). FIG. 3 illustrates the impact of 4-(4-(3,4-dimethoxyphenyl)-6-phenylpyrimidin-2-yl)morpholine on the sulfation of heparan sulfate found in human cervical cancer cells (HeLa). The sulfation of heparan sulfate is determined by culturing HeLa cells in the presence of the heparan sulfate modulator. Heparan sulfate is isolated from treated and untreated cells by lysing the cells in 0.1 N NaOH. After neutralization, the cell lysate is treated with pronase to degrade the core proteins. Subsequently, the heparan sulfate is purified on diethylaminoethyl (DEAE) resin, eluted with 1.0 M NaCl, desalted using gel filtration and dried. To characterize the composition of heparan sulfate produced in the presence of the heparan sulfate modulator, the isolate heparan sulfate is digested to disaccharides using a blend of heparin lyase I, II, and III (from flavobacterium heparinum). The disaccharides are quantified by HPLC using a propac PA1 column using known heparan sulfate disaccharides as standards. Specifically, FIG. 3A illustrates the impact of 4-(4-(3,4-dimethoxyphenyl)-6-phenylpyrimidin-2-yl)morpholine on the amount of specific disaccharide units; and FIG. 3B illustrates the impact of 4-(4-(3,4-dimethoxyphenyl)-6-phenylpyrimidin-2-yl)morpholine on the amount of specific glucosamine and uronic acid modifications.\nas §1, with “FIG. 4” for “FIG. 2”, “of 7-((3-chlorophenyl)(pyridin-2-ylamino)methyl)-2-methylquinolin-8-ol” for “of 4-(4-(3,4-dimethoxyphenyl)-6-phenylpyrimidin-2-yl)morpholine”, “FIG. 5” for “FIG. 3”, “heparinum). […]” for “heparinum). The disaccharides are quantified by HPLC using a propac PA1 column using known heparan sulfate disaccharides as standards. Specifically, FIG. 3A illustrates the impact of 4-(4-(3,4-dimethoxyphenyl)-6-phenylpyrimidin-2-yl)morpholine on the amount of specific disaccharide units; and FIG. 3B illustrates the impact of 4-(4-(3,4-dimethoxyphenyl)-6-phenylpyrimidin-2-yl)morpholine on the amount of specific glucosamine and uronic acid modifications.”"}, "[2]": {"test_system": "cultured primary human fibroblast from MPS patients", "experiment": "In vitro MPS model: accumulation of GAG fragments in fibroblasts", "format": "cell-based", "description": "Substrate reduction therapy (SRT) is validated for MPS. The non-specific inhibitor of sulfation, sodium chlorate is used herein for such validation. […] In certain instances, in vitro MPS models used herein are based on measuring the accumulation of GAG fragments in cultured primary human fibroblast from MPS patients. In some instances, the GAGs that accumulate in MPS patients are much smaller than normal tissue GAGs and they lack a core protein on their reducing termini. Based on these features the in vitro MPS model used in certain instances herein is based on a method of tagging reducing ends of the GAGs with a detectable label and analyzing (i.e., detecting and/or measuring) the detectable labels using a device suitable for detecting the label (e.g., an HPLC with a fluorimeter)."}, "[3]": {"test_system": "6-O sulfation of heparan sulfate", "experiment": "Change in the structure (sulfation) of heparan sulfate in cultured human cells", "format": "cell-based", "settings": "FIG. 21A", "protocol": "FIG. 2 illustrates the impact of 4-(4-(3,4-dimethoxyphenyl)-6-phenylpyrimidin-2-yl)morpholine on the ability of FGF2 to bind to heparan sulfate in human cervical cancer cells (HeLa). FGF2 binding to heparan sulfate is measured by culturing HeLa cells in the presence of the heparan sulfate modulator. After 2 days of growth, the cells are released with 5 mM EDTA and probed with biotinylated FGF2 for 30 minutes on ice. After washing unbound FGF2, bound FGF2 is detected with streptavidin-Cy5-PE. After washing to remove unbound streptavidin-Cy5-PE, the bound probe is quantified using a flow cytometry. The heparan sulfate inhibitors are tested on at least three independent occasions, in duplicate over a dose range. Heparan sulfate specificity is determined by probing with lectins to other glycan classes (chondroitin sulfate, O-linked, N-linked, etc.). FIG. 3 illustrates the impact of 4-(4-(3,4-dimethoxyphenyl)-6-phenylpyrimidin-2-yl)morpholine on the sulfation of heparan sulfate found in human cervical cancer cells (HeLa). The sulfation of heparan sulfate is determined by culturing HeLa cells in the presence of the heparan sulfate modulator. […] The disaccharides are quantified by HPLC using a propac PA1 column using known heparan sulfate disaccharides as standards. […]\n(§2) After sacrifice, the liver and tumor were analyzed for changes in the structure of heparan sulfate."}, "[4]": {"test_system": "SKOV3 cells", "experiment": "Human ovarian cancer model, SKOV3 subcutaneous tumors in female nude mice", "format": "in vivo", "settings": "1, 3 and 10 mg/kg/day, two IP injections daily", "protocol": "Compound 9 was tested for anti-cancer activity in a Human ovarian cancer model. Briefly, 5 million SKOV3 cells were injected in 100 ul mixed with matrigel subcutaneously into female nude mice. The tumors were allowed to grow to 0.1 cm^3 then the mice were randomized into four groups (Vehicle, 1, 3, and 10 mg/kg/day). Each group received the indicated daily dose divided into two IP injections. Vehicle alone received the formulation only."}, "[5]": {"test_system": "heparan sulfate", "experiment": "Heparan sulfate structure in liver and tumor after sacrifice, SKOV3 model", "format": "in vivo, mice", "protocol": "as §2"}, "[6]": {"test_system": "synthesis of PAPs / heparan sulfate sulfation", "settings": "cited from earlier work"}, "[7]": {"settings": "in vitro model of MPS IIIA, human MPS IIIA fibroblasts"}},
  "data": [
    {"smiles": "COc1ccc(-c2cc(-c3ccccc3)nc(N3CCOCC3)n2)cc1OC", "note": "[compound 1, 4-(4-(3,4-dimethoxyphenyl)-6-phenylpyrimidin-2-yl)morpholine]", "values": [
      {"measurement": "inhibition of FGF-2 binding to heparan sulfate", "setting": "[1]", "result": "inhibition of FGF-2 binding"},
      {"measurement": "inhibition of heparan sulfate biosynthesis", "setting": "[2]; human MPS IIIA fibroblasts", "result": "inhibition of heparan sulfate biosynthesis"},
      {"measurement": "GAG accumulation", "setting": "[2]; [7]", "result": "reduce GAG accumulation"}
    ]},
    {"smiles": "Cc1ccc2ccc(C(Nc3ccccn3)c3cccc(Cl)c3)c(O)c2n1", "note": "(stereo not drawn) [compound 2, 7-((3-chlorophenyl)(pyridin-2-ylamino)methyl)-2-methylquinolin-8-ol]", "values": [
      {"measurement": "inhibition of FGF-2 binding to heparan sulfate", "setting": "[1]", "result": "inhibition of FGF-2 binding"}
    ]},
    {"smiles": "Cc1ccc2ccc(C(Nc3ccccn3)c3ccccc3F)c(O)c2n1", "note": "(stereo not drawn) [compound 3, 7-((2-fluorophenyl)(pyridin-2-ylamino)methyl)-2-methylquinolin-8-ol]", "values": [
      {"measurement": "inhibition of FGF-2 binding to heparan sulfate", "setting": "[1]", "result": "inhibition of FGF-2 binding"}
    ]},
    {"smiles": "CC(C)C(=O)NC(c1cccs1)c1cc([N+](=O)[O-])c2cccnc2c1O", "note": "(stereo not drawn) [compound 5, 7-((thiophen-2-yl)(isobutoylamino)methyl)-5-nitroquinolin-8-ol]", "values": [
      {"measurement": "inhibition of FGF-2 binding to heparan sulfate", "setting": "[1]", "result": "inhibition of FGF-2 binding"},
      {"measurement": "inhibition of heparan sulfate biosynthesis", "setting": "[2]; human MPS IIIA fibroblasts", "result": "inhibition of heparan sulfate biosynthesis"},
      {"measurement": "GAG accumulation", "setting": "[2]; [7]", "result": "reduce GAG accumulation"}
    ]},
    {"smiles": "CCc1cc(=O)oc2cc(Oc3ccc([N+](=O)[O-])cc3C(F)(F)F)ccc12", "note": "[compound 6, 4-ethyl-7-(4-nitro-2-(trifluoromethyl)phenoxy)-2H-chromen-2-one]", "values": [
      {"measurement": "inhibition of FGF-2 binding to heparan sulfate", "setting": "[1]", "result": "inhibition of FGF-2 binding"}
    ]},
    {"smiles": "CC(C)(C)C1CCc2c(sc3nc(C(F)(F)F)[nH]c(=O)c23)C1", "note": "(stereo not drawn) [compound 7]", "values": [
      {"measurement": "inhibition of FGF-2 binding to heparan sulfate", "setting": "[1]", "result": "inhibition of FGF-2 binding"},
      {"measurement": "inhibition of heparan sulfate biosynthesis", "setting": "[2]; human MPS IIIA fibroblasts", "result": "inhibition of heparan sulfate biosynthesis"},
      {"measurement": "GAG accumulation", "setting": "[2]; [7]", "result": "reduce GAG accumulation"}
    ]},
    {"smiles": "O=C(NC(=S)N(Cc1ccccc1)Cc1ccccc1)c1cccc(Cl)c1", "note": "[compound 8]", "values": [
      {"measurement": "inhibition of FGF-2 binding to heparan sulfate", "setting": "[1]", "result": "inhibition of FGF-2 binding"},
      {"measurement": "inhibition of heparan sulfate biosynthesis", "setting": "[2]; human MPS IIIA fibroblasts", "result": "inhibition of heparan sulfate biosynthesis"},
      {"measurement": "GAG accumulation", "setting": "[2]; [7]", "result": "reduce GAG accumulation"}
    ]},
    {"smiles": "C[S+]([O-])c1ccc(-c2nc(-c3ccc(F)cc3)c(-c3ccncc3)[nH]2)cc1", "note": "(stereo not drawn) [compound 9]", "values": [
      {"measurement": "6-O sulfation of heparan sulfate", "setting": "[3]", "result": "inhibits the 6-O sulfation of heparan sulfate"},
      {"measurement": "tumor growth", "setting": "[4]", "result": "blocked tumor growth at all doses tested"},
      {"measurement": "heparan sulfate biosynthesis in liver", "setting": "[5]; liver of treated animals, after sacrifice, 1, 3 and 10 mg/kg/day IP", "result": "altered in the liver of treated animals in a dose dependent manner"},
      {"measurement": "changes in the structure of heparan sulfate in tumor", "setting": "[5]; small tumor remaining in treated animals, after sacrifice", "result": "No changes were detected"}
    ]},
    {"smiles": "[Na+].[O-][Cl+2]([O-])[O-]", "note": "[sodium chlorate, reference compound]", "values": [
      {"measurement": "GAG accumulation", "setting": "[2]; in vitro model of MPS I", "result": "reduction of GAG accumulation"},
      {"measurement": "GAG accumulation", "setting": "[2]; in vitro model of MPS II", "result": "reduction of GAG accumulation"},
      {"measurement": "GAG accumulation", "setting": "[2]; [7]", "result": "reduction of GAG accumulation"},
      {"measurement": "synthesis of PAPs (sulfate donor)", "setting": "[6]; 30-60 mM", "result": "inhibits the synthesis of PAPs"},
      {"measurement": "sulfation of heparan sulfate produced by cells", "setting": "[6]; cells grown in the presence of the substance", "result": "reduced sulfation"}
    ]}
  ]
}
